In patent US9757391B2 (priority 2012, dated 2017):
“Also recorded” adds a separate entry of the source.

Tests used:
morphine tolerant rats = conditions: cited from earlier work
morphine tolerance [1] = conditions: in vivo; cited from earlier work
morphine tolerance [2] = conditions: rats, cited from earlier work
mouse [3] = assay: General pharmacological screen: depression of behaviour; type: in vivo; conditions: 300 mg/kg po
Procedure: (§1) A general pharmacological screen was performed on the neuroactive steroid alphadolone.

mouse [4] = assay: General pharmacological screen: maximum tolerated dose, autonomic signs; type: in vivo; conditions: 300 mg/kg po
Procedure: as §1

histotoxic hypoxia = type: in vivo; conditions: mouse, 100 mg/kg po; ≧50% indicates significant cerebral protection

etanercept
microglia activation and proinflammatory cytokine production (morphine tolerant rats): inhibited | morphine tolerance (morphine tolerant rats): reversed the morphine tolerance

CC(=O)[C@H]1CC[C@H]2[C@@H]3CC[C@H]4C[C@H](O)CC[C@]4(C)[C@H]3CC[C@]12C [allopregnanolone]
prevention of morphine tolerance (morphine tolerance [1]): do prevent morphine tolerance

C[C@]12CC[C@H](O)CC1=CC[C@@H]1[C@@H]2CC[C@]2(C)C(=O)CC[C@@H]12 [dehydrepiandrsterone]
prevention of morphine tolerance (morphine tolerance [1]): do prevent morphine tolerance

CN1CC[C@]23c4c5ccc(O)c4O[C@H]2[C@@H](O)C=C[C@H]3[C@H]1C5 [M-IR, morphine]
tail flick latency response to M-IR, after M-SR treatment (morphine tolerance [2]; M-IR 6.25 mg/kg ip, after M-SR 125 mg/kg/day sc with vehicle emulsion, mean±SEM, P<0.001): 20.3±4.8 % MPE | tail flick latency response to M-IR, pre treatment (morphine tolerance [2]; M-IR 6.25 mg/kg ip, before M-SR treatment, mean±SEM): 89.6±2.5 % MPE

C[C@]12CC[C@@H](O)C[C@@H]1CC[C@H]1[C@@H]3CC[C@H](C(=O)CO)[C@@]3(C)CC(=O)[C@@H]12 [alphadolone]
depression of behaviour (mouse [3]): no sedation | maximum tolerated dose autonomic signs: body temperature (mouse [4]): temperature elevation | hypoxia KCN test result (histotoxic hypoxia): result = 50; % | occurrence of morphine tolerance (TFL) (morphine tolerance [2]; alphadolone emulsion 250 mg/kg sc co-administered with M-SR): prevented the occurrence of morphine tolerance; also recorded: no significant tolerance occurred | sedation (morphine tolerance [2]; alphadolone emulsion 250 mg/kg sc with M-SR): did not cause sedation; also recorded: caused no sedation

CC(=O)[C@H]1CC[C@H]2[C@@H]3CC=C4C[C@@H](O)CC[C@]4(C)[C@H]3CC[C@]12C [pregnenolone]
prevention of morphine tolerance (morphine tolerance [1]): do prevent morphine tolerance
